Source: a melting point compilation (Tetko et al.; mined from patent text by program, amines drawn as free bases though some values may be those of a salt)

Row | melting point [°C] | Compound
1 | 126 to 128 | CN(C)Cc1ccc(CSCCNC(=O)C=CC(=O)NCCCOc2cccc(CN3CCCC3)c2)o1
2 | 169 to 170 | CCCOc1ccc(C2CCCN3CCS(=O)(=O)N=C23)cc1 (stereo unspecified)
3 | 173 to 174 | CC(=O)c1ccc(SC(=O)N(C)C)cc1OCC(=O)O
4 | 105 to 109 | CCOC(=O)NN=C(c1ccc(Cl)cc1)c1ccc(CSC)cc1
5 | 93 to 94 | O=S(=O)(Cc1nnc(-c2ccc3c(c2)CCO3)o1)c1cccc(F)c1
6 | 102 to 106 | CCOC(=O)C1=Cc2cc(C#N)ccc2OC1C(F)(F)F (stereo unspecified)
7 | 168 to 170 | O=S(=O)(c1cccc2ccccc12)c1n[nH]c2ccc(OCC3CCCNC3)cc12 (stereo unspecified)
8 | 141 to 142 | CS(=O)C1C(=O)Nc2ccc(C(F)(F)F)cc21 (stereo unspecified)
9 | 66 | CCN(CC(F)(F)F)c1cccc([N+](=O)[O-])c1
10 | 182 | CS(=O)(=O)Nc1cccc(C=C2c3ccc(Cl)cc3CCc3cc(Cl)ccc32)c1
11 | 168 to 170 | CC(=O)NC[C@H]1CN(c2cc(F)c(N3CCC(n4ncn(C)c4=S)CC3)c(F)c2)C(=O)O1
12 | 70 to 71 | COc1ccc([C@@H]2Sc3cc(Cl)ccc3N(CCCN3CCN(c4ccccc4)CC3)C(=O)[C@@H]2O)cc1 (relative stereo)
13 | 200 to 202 | O=C(O)[C@H](Cc1ccccc1)NC(=O)[C@@H]1CCCN1C(=O)c1ccccc1
14 | 141 to 142 | COC(=O)C(C)(SC)c1ccc(N2C(=O)c3ccccc3C2=O)c(Cl)c1 (stereo unspecified)
15 | 75 to 82 | COc1cc(N2CCC(N3CCCOCC3)CC2)ccc1Nc1ncc2ccc(-c3ccccc3OC)n2n1
16 | 138 to 140 | CC12C=CC(=O)C=C1CCC1C2C(O)CC2(C)C1CC(OCCO)C2(O)C(=O)CO (stereo unspecified)

Row | melting point [°C] | Compound
17 | 168 to 169 | O=C(c1ccccc1)[C@]1([N+](=O)[O-])[C@H](c2ccccc2)[C@H]2C[C@H](O)[C@@H]1C2 (relative stereo)
18 | 131 to 132 | O=C(O)CCCCCc1nn(-c2ccc([N+](=O)[O-])cc2)c2c1CCC2
19 | 109 to 110 | CC(C)c1ccc(C2c3cc(N)ccc3OC2(C)C)cc1 (stereo unspecified)
20 | 170 to 171 | COc1cc(F)cc(-c2ccc3c(c2)C(C)(C)OC(=S)N3)c1
21 | 159 | CC#CCOc1cc(Nc2ccccc2)ncn1
22 | 144 to 145 | Cc1nc2ccc(CBr)cc2c(=O)n1COC(=O)C(C)(C)C
23 | 238 | CC(=O)OCC(=O)C1C(C)CC2C3CC(Cl)C4=CC(=O)C=CC4(C)C3(Cl)C(O)CC21C (stereo unspecified)
24 | 50 to 52 | CC(C)(C)OC(=O)NCCCc1ccccc1OCc1ccccc1
25 | 128 to 129 | CCOCc1nc2c(N)nc3ccccc3c2n1CCCCC(=O)N1CCOCC1
26 | 185 to 187 | COc1ccc(C(=O)c2cc(Cl)ccc2NS(=O)(=O)c2ccc(C)cc2)c(O)c1OC
27 | 125 to 127 | Cc1nccn1-c1ccc(OCCO)cc1
28 | 116 to 117 | O=C(O)C1=C(c2ccccc2)C(c2ccccc2)OC1=O (stereo unspecified)
29 | 172 to 175 | COc1ccc(O)c(C2(O)C(=O)Nc3cccc(Br)c32)n1 (stereo unspecified)
30 | 210 to 212 | COc1cc2c(Nc3ccc(Cl)cc3F)ncnc2cc1OCc1ccnc(Br)c1
31 | 241 to 243 | CCOC(=O)c1ccc(N2CCc3[nH]c4c(cnc5cc(Cl)ccc54)c3C2)cc1

More lines, now with the values behind:

Row | Compound | melting point [°C]
32 | CO[C@H]([C@@H](C)C(=S)NCCc1ccccc1)[C@@H]1CCCN1C(=O)OC(C)(C)C | 107 to 109
33 | COc1cn(-c2ccc(-n3cc(F)c(F)c3)cc2OC(F)F)nc(-c2ccnn2-c2ccccc2)c1=O | 168 to 170
34 | Cc1cccc2c1C=Cc1ccccc1C2(C)NO (stereo unspecified) | 127 to 130
35 | CCC(C(=O)O)c1ccccc1Br (stereo unspecified) | 37 to 39
36 | Cc1ccc(C(=C(C=CC(O)CC(=O)CC(=O)OC(C)(C)C)c2nnnn2C)c2ccc(C)cc2F)c(F)c1 (stereo unspecified) | 55 to 63
37 | CC12CCC=CC1=CCC1C2CCC2(C)C(OS(=O)(=O)C(F)(F)F)=CCC12 (stereo unspecified) | 75 to 76
38 | Cc1cccc(NC(=O)NCC(=O)N(CC(=O)N(C)c2ccccc2)c2ccccc2Cl)c1 | 180
39 | CC1Cc2cc(NS(C)(=O)=O)ccc2OC12CCC(N1CCc3ccccc3C1)CC2 (stereo unspecified) | 135
40 | CCOC(=O)c1cn(Nc2ccc(F)cc2F)c2nc(Cl)c(F)cc2c1=O | 210 to 212
41 | O=C1Nc2ccccc2SC1c1ccc(F)cc1 (stereo unspecified) | 216 to 219
42 | Cc1ccc(Nc2ncc(C=Cc3cccnc3)c3ccccc23)cc1Br | 91
43 | CS(=O)(=O)CCCn1c(=N)sc2cc(OC(F)(F)F)ccc21 | 180
44 | c1ccc(-c2nc(N3CCN(c4ccccn4)CC3)c3ccccc3n2)cc1 | 164 to 166
45 | COc1ccc2c(C=O)c(OCc3ccccc3)ccc2c1C(F)(F)F | 143 to 145
46 | CCOC(=O)c1cc(S(=O)(=O)c2ccccc2)c2ccccn2c1=O | 182
47 | CSc1nc(-c2ccncc2)n(-c2ccc(C)cc2)c(=O)c1C#N | > 250
48 | COC(=O)c1c(NC(C)C)cccc1S(=O)(=O)NC(C)(C)C | 110 to 112
49 | CC(=O)Nc1cc(Oc2ccc3c(C(=O)Nc4cc(-n5cnc(C)c5)cc(C(F)(F)F)c4)cccc3c2)ncn1 | 291 to 293
50 | CCOCCOc1ccc(-c2ccc3c(c2)C=C(C(=O)Nc2ccc(CN(C)C4CCOCC4)cc2)CCS3(=O)=O)cc1OCCOCC | 150 to 151
51 | c1ccc(CSc2ncnc3c(N4CCOCC4)nc(N4CCNCC4)nc23)cc1 | 191 to 193
52 | N#CCCNC(=O)c1cccc(-c2ccc3c(c2)N(Cc2ccc(Cl)cc2Cl)CC3)c1 | 148 to 149
53 | CC(C)(C)c1cc(C(O)C#Cc2ccc(C(=O)O)cc2)ccc1N1CCCCC1 (stereo unspecified) | 112

Row | Compound | melting point [°C]
54 | CCCCS(=O)(=O)NCc1ccc(C(=O)CN2CCN(c3ccncc3)CC2)cc1 | 101 to 103
55 | COC(=O)c1cccc2c1Nc1c(I)cccc1C2 | 105 to 107
56 | CC(C)(C)OC(=O)N(CCN)CCN(CCN)C(=O)OC(C)(C)C | 81 to 82
57 | CCCC[C@H](NC(=O)[C@@H](NC(=O)OCc1ccccc1)C(C)C)C(=O)CSCc1ccco1 | 115 to 116
58 | CC1=C(C(=O)N[C@H](C)c2ccccc2)[C@H](c2ccc(F)cc2Cl)N=C(c2nccs2)N1 | 224 to 226
59 | O=C1c2ccccc2C(=O)C1(CCN1CCC(c2noc3cc(F)ccc23)CC1)c1ccccc1 | 149 to 150
60 | Cc1nc2c(N)nc3cc(OCCC4CCN(C(=O)C(C)C)CC4)ccc3c2n1CC(C)C | 205 to 207
61 | CCCC1=C(C#N)C(c2ccccc2Cl)c2c(n[nH]c2-c2ccc3ccccc3c2)N1 (stereo unspecified) | > 270
62 | O=C1N(N2CCCCC2)c2ccccc2C1(Cc1ccncc1)Cc1ccncc1 | 140 to 143
63 | NS(=O)(=O)c1ccc(N2CCN(CCCC3OCCc4ccccc43)CC2)cc1 (racemic) | 177 to 178
64 | C=CC(=O)Nc1cccc2c(=O)c(C)c(-c3ccccc3)oc12 | 229 to 230
65 | Cc1nnc(-c2ccnc(Nc3cc(F)ccc3F)c2)o1 | 202 to 203
66 | CCC(C)N1CC(C)=CC2=C1N1CN(OC)C=C1N=N2 (stereo unspecified) | 157 to 159
67 | CS(=O)(=O)Nc1ccc2ncn3c(=O)c(C(=O)O)cnc3c2c1 | 319 to 322
68 | CC(=O)c1cccc2c1Oc1c(C(C)=O)cccc1N2[Si](C)(C)C(C)(C)C | 146
69 | OCC(I)c1ccccc1 (stereo unspecified) | 71 to 72
70 | C/C(=C\COc1ccc(Cl)cc1Cl)C(=O)O | 117 to 122
71 | CC(C)(C)NS(=O)(=O)Cl | 28 to 30
72 | O=C(O[C@@H]1CC[C@H]1Br)c1ccccc1 (relative stereo) | 38 to 40
73 | COC(=O)c1cccc([N+](=O)[O-])c1NCc1ccc(-c2ccccc2C#N)cc1 | 140 to 141
74 | COc1cc(N)c(Cl)cc1C(=O)NCC1CCN(CCS(=O)(=O)CCc2ccccc2)CC1 | 161 to 162
75 | O=C(O)C(=O)CC(=O)c1cccn1Cc1cccc(Br)c1 | 164 to 166

Row | Compound | melting point [°C]
76 | CC(=O)OC1CSC(Oc2cccc(-c3ccc(F)nc3)c2)C(OC(C)=O)C1OC(C)=O (stereo unspecified) | 115
77 | Cn1cc(-c2cccc(Br)c2)c(=O)c(-c2ccccc2Cl)c1 | 177 to 179
78 | CCNC(=O)c1c([Si](C)(C)C)ccc(SC)c1Cl | 137 to 139
79 | C=CCOC(=O)CCC(C)(c1ccc(O)cc1)c1ccc(O)cc1 | 83 to 85
80 | Cc1cc(Cl)cc2[nH]c(=O)c(=O)[nH]c12 | > 250
81 | COc1ccc(-c2c(Cl)c(CN3C(=O)CCC3=O)nc3sc4c(c23)CC/C(=N/O)C4)cc1 | 248 to 249
82 | O=C(Cc1ccc(OCc2ccccc2)cc1)Nc1nnc(-c2cccc(Oc3cccc(C(F)(F)F)c3)c2)s1 | 194 to 195
83 | Cc1oc(=O)oc1CSc1ccc(Cl)cc1 | 54 to 57
84 | COc1ccc(COC(=O)n2c(SCc3ccc(C)cn3)nc3cscc32)cc1 | 120 to 121
85 | CC(C)(C)OC(=O)N1CCC[C@H]1C(=O)OCCCNc1cccc2c1C(=O)c1ccccc1C2=O | 121
86 | CC1(c2ccc3noc(-c4ccccc4)c3c2)OCCO1 | 69 to 71
87 | CCCCCCCCCCCCCCCCCCN1C(=O)CCC1=O | 75.8
88 | COc1ccc(-n2nnc(-c3ccc(F)cc3F)c2N)cc1 | 152 to 156
89 | Cc1ccc(C(=O)c2ccc(Cc3ccc(N)cc3)n2C)c(C)c1 | 108
90 | COc1ccc(C(=O)c2cccnc2N2CCCC2=O)cc1 | 76 to 77
91 | COCOc1ccc(N(C)S(=O)(=O)c2ccc(C)cc2)c([N+](=O)[O-])c1 | 110 to 112
92 | CCOC(=O)c1cc(-c2ccc(OC)cc2)[nH]c1N | 141 to 142
93 | O=C(O)CNC(=O)c1ncc(-c2cccc(F)c2)cc1O | 182 to 184
94 | Nc1ncnc2sc(Cc3ccccc3)c(-c3ccc([N+](=O)[O-])cc3)c12 | 231 to 233
95 | CNC(=O)c1cccc(NC(=O)Cc2cccc(O)c2)c1 | 163
96 | CCCCC[C@H]1CC[C@H](/C=C/COc2ccc(C(=O)O)cc2)CC1 | 214 to 215
